In article PMC2840623 (Biochemistry, 2010):

Key:
[1] = target: T1, epi-isozizaene synthase (EIZS) (Streptomyces coelicolor, UniProt Q9K499); test: X-ray crystal structure, […] Å; assay type: binding; settings: complex with 3 Mg2+ and BTAC; active site
T1 sequence (Q9K499 1-361): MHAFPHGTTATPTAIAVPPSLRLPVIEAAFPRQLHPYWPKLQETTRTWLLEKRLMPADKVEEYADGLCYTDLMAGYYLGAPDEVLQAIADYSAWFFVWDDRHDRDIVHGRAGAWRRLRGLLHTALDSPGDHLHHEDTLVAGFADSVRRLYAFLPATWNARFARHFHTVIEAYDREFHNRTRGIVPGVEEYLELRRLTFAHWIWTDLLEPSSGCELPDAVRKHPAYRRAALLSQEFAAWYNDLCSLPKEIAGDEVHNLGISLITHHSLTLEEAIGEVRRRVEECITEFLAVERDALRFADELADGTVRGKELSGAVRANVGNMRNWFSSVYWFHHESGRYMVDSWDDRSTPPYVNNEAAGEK

[2] = target: epi-isozizaene synthase (EIZS) (Streptomyces coelicolor, UniProt Q9K499, F198A); test: X-ray crystal structure, […] Å; assay type: binding; settings: complex with 3 Mg2+ and PPi; active site, alternative orientation
epi-isozizaene synthase (EIZS) (Streptomyces coelicolor, UniProt Q9K499, F198A), sequence (Q9K499 whole entry F198A): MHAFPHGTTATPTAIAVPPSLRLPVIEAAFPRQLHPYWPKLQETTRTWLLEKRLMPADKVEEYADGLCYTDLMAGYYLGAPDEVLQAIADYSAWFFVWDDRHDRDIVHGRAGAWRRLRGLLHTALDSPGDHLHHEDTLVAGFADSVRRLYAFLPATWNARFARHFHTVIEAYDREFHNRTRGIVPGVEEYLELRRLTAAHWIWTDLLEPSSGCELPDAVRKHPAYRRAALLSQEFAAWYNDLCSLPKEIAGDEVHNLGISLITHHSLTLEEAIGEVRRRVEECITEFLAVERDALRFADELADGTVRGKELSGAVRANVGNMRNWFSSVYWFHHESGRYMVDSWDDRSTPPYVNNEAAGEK

Row | SMILES | X-ray crystal structure, 1.60 Å [1] | X-ray crystal structure, 1.64 Å [2]
1 | O=P(O)(O)OP(=O)(O)O [PPi, inorganic pyrophosphate] | The PPi anion also accepts hydrogen bonds from the side chains of R194, K247 | 
2 | CC[N+](CC)(CC)Cc1ccccc1 [BTAC, benzyltriethylammonium cation] |  | the BTAC molecule occupies an alternative position
